Columns and labels:
[1] = tested on: tissue nonspecific form of alkaline phosphatase; settings: several species; cited from earlier work
[2] = tested on: tissue-specific form of alkaline phosphatase; settings: stereoselective: only the L-form is active; uncompetitive; cited from earlier work
[3] = tested on: Human hair follicles; assay: Human hair follicle growth assay; format: cell-based; settings: 0.1 mM, control 0.77 ± .09
Protocol: Human hair follicles in growth phase (anagen) were isolated from face-lift tissue under a dissecting scope using a scalpel and watchmakers forceps. The skin was sliced into thin strips exposing 2-3 rows of follicles that could readily be dissected. Follicles were placed into 0.5 mL Williams E medium (Life Technologies, Gaithersburg, Md.) supplemented with […] L-glutamine, 10 μg/mL insulin, 10 ng/mL hydrocortisone, 100 units penicillin, 0.1 mg/mL streptomycin and 0.25 μg/mL amphotericin B. The follicles were incubated in 24 well plates (1 follicle/well) at 37° C. in an atmosphere of 5% CO2 and 95% air. Hair follicles were video recorded in the 24-well plates under the dissecting scope under a power of 20×. Typically, initial recordings were made on day 0 (day follicles were placed in culture) or day 1, and again on days 7 or 8. Hair follicle lengths were assessed using an image analysis software system (Computer Eyes and NIH Image).

Structure (SMILES)	Inhibition of tissue-specific form of alkaline phosphatase [2]	further results
N=C(N)NCCCC[C@H](N)C(=O)O [L-homoarginine]	–	Inhibition of tissue nonspecific form of alkaline phosphatase [1]: acts as an inhibitor
N[C@@H](Cc1ccccc1)C(=O)O [phenylalanine]	inhibit	–
N[C@@H](Cc1c[nH]c2ccccc12)C(=O)O [tryptophan]	inhibit	–
CC(C)C[C@H](N)C(=O)O [leucine]	inhibit	–
[Na+].[Na+].[Na+].[O]=[V]([O-])([O-])[O-] [Sodium Orthovanadate, sodium orthovanadate]	–	Hair Follicle Length Increase (Day 6-Day 0) [3]: 0.32 ± .06 mm
